Experimental data reported in patent US20250332170A1, “VANDETANIB REDUCES INFLAMMATORY CYTOKINES AND AMELIORATES COVID-19” (Collaborations Pharmaceuticals, Inc., priority 2021, published 2025).
“Also recorded” adds a separate entry of the source.

Test system: Pseudo SARS-CoV-2 D614G
Format: cell-based

Row | SMILES | SARS-CoV-2 Spike protein-mediated entry, pseudovirus assay
1 | CN1CCN(c2ccc(C(=O)Nc3n[nH]c4ccc(Cc5cc(F)cc(F)c5)cc34)c(NC3CCOCC3)c2)CC1 [Entrectinib] | no significant activity
2 | COc1cc2c(Nc3ccc(Br)cc3F)ncnc2cc1OCC1CCN(C)CC1 [Vandetanib] | active; also recorded: decreased viral entry
